Measurements published in patent publication US20240182521A1, “CELL-PENETRATING PEPTIDE VARIANT AND USE THEREOF” (REGEN INNOPHARM INC., priority 2021, published 2024).

Key:
fibroblast 3T3 cells = assay: Cell migration across a scratched boundary, LPX105 variants; format: cell-based; conditions: 72 hours after treatment, control group PBS
Procedure: Using the method described in Example 1-2 above, the cell migration promotion of LPX105, LPH105, and LPHS105 was confirmed. Specifically, in order to confirm the cell migration effect, fibroblast 3T3 cells were treated with LPX105, LPH105, and LPHS105 peptides, incubated for 1 hour, and then washed. Thereafter, the migration of cells across a scratched boundary was measured 72 hours after treatment. The number of cells that migrated across a scratch line was measured by image analysis using ImageJ.

[1] = tested on: diabetes model mice (db/db); assay: Diabetic wound healing of LPX105 variants in db/db mice; format: in vivo, mouse; conditions: 3 μg daily for 10 days, control group PBS
Procedure: By using the method described in Example 2-4 above, the diabetic wound healing effect of LPX105, LPH105, and LPHS105 was evaluated. Specifically, the skins of diabetes model mice (db/db) (n=14 each) were punched with an 8 mm diameter puncher and treated with LPX105, LPH105 and LPHS105 (3 μg) or PBS daily for 10 days and subjected to wound dressing. The wound healing effect was confirmed by analyzing an initial wound area and a re-epithelialization area using ImageJ (mean SEM n=3, *; p<0.05).

[2] = tested on: NIH3T3 cell line and mouse mesenchymal stem cells (mMSCs); assay: Cell penetrating effect (FACS, confocal microscopy) of FITC-attached peptides; format: cell-based
Text: A cell penetrating effect was confirmed in penetrating peptides LPX101 (SEQ ID NO: 11), LPX102 (SEQ ID NO: 12), and LPX103 (SEQ ID NO: 13) having three structures including a signal peptide, an RNA binding affinity residue, and an RNA binding residue (FIG. 1), and two zinc finger motifs. Specifically, in order to measure cell penetrating efficiency, respective peptides that may have been attached to the cell membrane surface were removed by applying a Heparin & Trypsin washing method used in a Keplan group [Kaplan I M, Wadia J S, Dowdy S F (2005) Cationic TAT peptide transduction domain enters cells by macropinocytosis. J Controlled release 102: 247-253] to a NIH3T3 cell line and mouse mesenchymal stem cells (mMSCs). […] Then, the cells were washed three times with PBS and detached with trypsin, and then FACS analysis was performed. In addition, whether each peptide actually existed in the nucleus or cytoplasm of the cell was confirmed by confocal microscopy after 18 hours of peptide treatment, and membrane binding was labeled with PKH.

[3] = tested on: diabetic human epidermal keratinocyte (DHEK); assay: Cell migration across a scratched boundary; format: cell-based
Procedure: (§1) An effect of LPX101 peptide on cell growth was confirmed in a NIH3T3 cell line, and the effects of LPX101, LPX102, and LPX103 peptides on cell migration were confirmed in diabetic human epidermal keratinocyte (DHEK) as a diabetic cell line. Specifically, mMSC or NIH3T3 cells were treated with the LPX101 peptide, incubated for 1 hour, and then washed. A % increase in cell growth by LPX treatment was confirmed by measuring the number of cells after 3 days of treatment and calculating a relative proliferation rate as % compared to a control group (n=3). Additionally, in order to confirm the cell migration effect, DHEK cells were treated with LPX101, LPX102, and LPX103 peptides, incubated for 1 hour, and then washed. Thereafter, the migration of cells across a scratched boundary was measured 72 hours after treatment. The number of cells that migrated across a scratch line was measured by image analysis using ImageJ.

NIH3T3 cells [4] = assay: Glycolysis, extracellular acidification rate (ECAR), Seahorse XF analyzer; format: cell-based, mouse
Procedure: NIH3T3 cells were incubated in a glucose-free medium for 1 day and then sequentially treated with glucose, oligomycin, and 2-DG, and an extracellular acidification rate (ECAR) was measured as a measure of lactate production using a Seahorse extracellular flux (XF) analyzer and quantification and profile of ECAR were confirmed in cells treated with LPX peptide (Mean SEM n=3, *; p<0.05).

[5] = tested on: diabetes model mice (db/db); assay: Diabetic wound healing in diabetes model mice (db/db); format: in vivo, mouse
Procedure: (§2) The skins of wild type (WT) mice and diabetes model mice (db/db) (n=14 each) were punched with an 8 mm diameter puncher and treated with LPX101 (2 mg/ml, 20 μl) or PBS daily for 14 days and subjected to wound dressing. The wound healing effect was confirmed by analyzing an initial wound area and a re-epithelialization area using ImageJ (mean SEM n=3, *; p<0.05). In addition, the wound healing effect in wounds treated with LPX101 was histologically evaluated. Specifically, diabetic mice (db/db) were stained with H/E or trichrome at 7 and 14 days after wound induction and then confirmed under a microscope, and re-epithelialization and granulation tissue were quantified using ImageJ (n=3, ***; p<0.001). In addition, the wounds of db/db mice were treated with LPX101, and the tissue epidermis after 14 days was histologically analyzed.
(§3) The wound healing effects of LPX101, LPX102, and LPX103 were confirmed in an STZ-induced diabetic mouse model. […] Thereafter, according to a schedule shown in FIG. 12A, PBS (negative control), EGF (positive control) 50 μg/ml, LPX101 2 mg/ml (20 μl), LPX102 and LPX103 (2 mg/ml (20 μl)) were treated, respectively, and then the effect of wound healing in a diabetes-induced mouse model was confirmed through imaging, re-epithelialization, and diabetes phenotypes (hyperglycemia and impaired glucose tolerance test (IPGTT)) (n=10 for each group, *; p<0.05). Additionally, to compare the regenerative activity of LPX peptides in a diabetic mouse model, wound healing kinetics measured by a % non-epithelialized area to an initial wound area (n=8 for each group), and quantification of re-epithelialization analyzed as % of a re-epithelialized area to the initial wound area were confirmed.

[6] = tested on: STZ-induced diabetic mouse model; assay: Wound healing in STZ-induced diabetic mouse model; format: in vivo; conditions: 2 mg/ml (20 μl)
Procedure: as §3

diabetic mice (db/db) = assay: Histological evaluation of wound re-epithelialization (H/E, day 10); format: in vivo, mouse; conditions: day 10 after initial injury
Text: In order to histologically evaluate wound re-epithelialization in diabetic mice by LPX peptides 101, 102 and 103, wound tissues from diabetic mice (db/db) treated by each LPX were H/E stained on day 10 after initial injury and confirmed under a microscope (50X and 100x).

[7] = tested on: diabetic mouse model (db/db); assay: Diabetic wound healing by combined treatment with EGF; format: in vivo; conditions: db/db mice, 8 mm punch wound
Text: The diabetic wound healing effect by combined treatment with LPX peptide and EGF was confirmed.

NIH3T3 cells [8] = assay: Cell migration effects, Table 1; format: cell-based, mouse; conditions: vehicle = 1
Procedure: Various variants of the LPX peptides were prepared as illustrated in FIG. 18. Specifically, various constructs (26 constructs including 101) were prepared by adding various mutations (substitution of a CPP region, amino acid mutation of an RNA binding portion and a zinc finger structure, and addition of his-tag) to the structure of LPX101 in FIG. 19 (FIG. 20).

NIH3T3 cell line = assay: Cell growth (relative proliferation rate vs control, 3 days); format: cell-based, mouse; conditions: concentrations of 2 μM and 5 μM; 3 days after treatment
Procedure: as §1

[9] = tested on: Human umbilical vein endothelial cells (Huvec); assay: Blood vessel formation on cytokine-free Matrigel; format: cell-based; conditions: Huvec treated for one day
Text: Human umbilical vein endothelial cells (Huvec) were dispensed on a cytokine-free Matrigel and treated with LPX101 for one day (n=3, 1 expt). […], the blood vessel formation was confirmed under a microscope, and blood vessel formation parameters including the number of nodules, the number of intravascular junctions, and the number of master segments were quantified.

wild type (WT) mice = assay: Skin punch wound healing in wild type mice; format: in vivo, mouse; conditions: 2 mg/ml, 20 μl daily for 14 days
Procedure: as §2

LPX105: cell-penetrating peptide of SEQ ID NO: 37 (RRPKGKSMQKRRSKGDRCYNCGGLDHHAKECKL; LPX105)
cell migration (fibroblast 3T3 cells): significantly promoted cell migration
diabetic wound healing [1]: accelerated the diabetic wound healing

LPH105: LPX105 variant of SEQ ID NO: 39, Histidine tag insertion (HHHHHHRRPKGKSMQKRRSKGDRCYNCGGLDHHAKECKL; LPH105)
cell migration (fibroblast 3T3 cells): increased cell migration more than LPX105
diabetic wound healing [1]: accelerated the diabetic wound healing more significantly than LPX105

LPX102: cell-penetrating peptide consisting of amino acid sequence SEQ ID NO: 12 (GSERRPKGKSMQKRRSKGDRCYNCGGLDHHAKECKLPPQPKKCHFCQSISHMVASCPL; LPX102)
cell permeability compared to LPX101 ([2]; compared to LPX101 (2 μM)): high cell permeability similar to LPX101
cell migration compared to LPX101 ([3]; DHEK cells, at lower concentrations than LPX101): promoted cell migration to a similar extent to LPX101
glucose metabolism (glycolysis), ECAR (NIH3T3 cells [4]): promoted glucose metabolism (glycolysis)
diabetic wound healing effect (wound healing kinetics and re-epithelialization) compared to LPX101 ([5]; db/db mouse model): better diabetic wound healing effect than LPX101
wound healing effect compared to LPX101 [6]: better effects than LPX101
re-epithelialization of diabetic wounds (histology) (diabetic mice (db/db)): significantly improved re-epithelialization
diabetic wound healing effect in combination with EGF [7]: improved when treated in combination with EGF
Effects on cell migration (3 expts) (NIH3T3 cells [8]; 1 uM): 1.2
Effects on cell migration (3 expts) (NIH3T3 cells [8]; 5 uM): 1.2

LPHS105: LPX105 variant of SEQ ID NO: 40, zinc finger region mutations and Histidine tag insertion (HHHHHHRRPKGKSMQKRRSKGDRCYNCGELDHHAKECKL; LPHS105)
cell migration (fibroblast 3T3 cells): increased cell migration more than LPX105
diabetic wound healing [1]: accelerated the diabetic wound healing more significantly than LPX105

LPX104: cell-penetrating peptide of SEQ ID NO: 14, containing SEQ ID NO: 7 with an RNA binding site in zinc finger 2 region (ERRPKGKSMQKRRSKGDRCYNCGGLDHHAKECKLPPQPKKCH; LPX104)
Effects on cell migration (3 expts) (NIH3T3 cells [8]; 1 uM): 1.3
Effects on cell migration (3 expts) (NIH3T3 cells [8]; 5 uM): 1.3

LPX101: cell-penetrating peptide consisting of amino acid sequence SEQ ID NO: 11 (RRPKGKSMQKRRSKGDRCYNCGGLDHHAKECKLPPQPKKCHFCQSISHMVASCPLKAQQK; LPX101)
cell permeability ([2]; concentrations of 2 μM and 5 μM): high cell permeability
intracellular localization ([2]; confocal microscopy after 18 hours of peptide treatment): most of LPX101 was present in the cytoplasm
cell growth (NIH3T3 cell line): promoted cell growth
migration of DHEK cells ([3]; 72 hours after treatment): promoted the migration of DHEK cells
blood vessel formation (capillary vascular rings) [9]: form more mature capillary vascular rings
glucose metabolism (glycolysis), ECAR (NIH3T3 cells [4]): promoted glucose metabolism (glycolysis)
wound healing (wild type (WT) mice): accelerated wound healing
healing of diabetic wounds ([5]; db/db mice, 2 mg/ml, 20 μl daily for 14 days): significantly accelerated the healing of diabetic wounds
granulation tissue, day 7 ([5]; db/db mice, day 7 (middle of the healing process)): early formation of granulation tissue
remodeling of the regenerated wound epithelium ([5]; db/db mice, day 14): accelerated
granulation tissue, day 14 ([5]; db/db mice, day 14 (end of the healing process)): early shrinkage (remodeling) of granulation tissue
hyperkeratosis, parakeratosis and acanthosis of the epidermis ([5]; db/db mice, histological analysis on day 14): reduced early
re-epithelialization of diabetic wounds (histology) (diabetic mice (db/db)): significantly improved re-epithelialization
diabetic wound healing effect in combination with EGF [7]: improved when treated in combination with EGF
Effects on cell migration (3 expts) (NIH3T3 cells [8]; 1 uM): 1.4
Effects on cell migration (3 expts) (NIH3T3 cells [8]; 5 uM): 1.3
